This note sets out measurements from publication PMC12404492, “The crystal structure of Thermus thermophilus UMP kinase complexed with a phosphoryl group acceptor and donor” (PLOS One, 2025).

In the test the target is T1, ttUMPK (UMP kinase of Thermus thermophilus HB8) (Thermus thermophilus, UniProt P43891).
T1 construct: gene pyrH; full-length gene in pET-11a (NdeI/BamHI), no tag mentioned; expressed in E. coli BL21(DE3), heat-treated; homohexamer by size exclusion
Briefly: X-ray crystal structure, […] Å (second data set, PDB code not given). Particulars: active site, most chains. It counts as binding.

The structures appear in SMILES notation.

T1 sequence (P43891 whole entry): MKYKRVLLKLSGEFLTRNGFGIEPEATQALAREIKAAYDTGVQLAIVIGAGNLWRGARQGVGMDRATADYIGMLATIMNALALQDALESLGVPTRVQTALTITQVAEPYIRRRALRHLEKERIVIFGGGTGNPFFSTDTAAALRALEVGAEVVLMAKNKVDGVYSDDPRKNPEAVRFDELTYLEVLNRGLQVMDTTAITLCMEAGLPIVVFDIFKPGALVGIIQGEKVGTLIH

Regarding `O=c1ccn([C@@H]2O[C@H](COP(=O)(O)O)[C@@H](O)[C@H]2O)c(=O)[nH]1` [UMP], the “X-ray crystal structure, 2.5 Å (second data set, PDB code not given)” value is listed as “most of the bound uridine nucleotides in the active site are UMP, not UDP”.
